Laboratory results published in ChEMBL document CHEMBL1201862, “PubChem BioAssay data set” (2004).
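All cell lines were grown in 96-well plates and treated with compound for 48 hours. GI50 marks 50% less growth.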 Calls of active or inactive are those of the source. Cut-off read from the data, not from the text of the source: active = GI50 up to about 1.1 µM and inactive = higher.

Columns and labels:
Test in all cases: NCI tumour cell line growth inhibition, 48 h
LOX IMVI = tested on: LOX IMVI
UACC-62 = tested on: UACC-62
NCI-H460 = tested on: NCI-H460
SF-295 = tested on: SF-295
NCI-H23 = tested on: NCI-H23
HOP-62 = tested on: HOP-62
SK-MEL-5 = tested on: SK-MEL-5
SR = tested on: SR
CCRF-CEM = tested on: CCRF-CEM
UO-31 = tested on: UO-31
HT-29 = tested on: HT-29
TK-10 = tested on: TK-10
HL-60 = tested on: HL-60
SNB-75 = tested on: SNB-75
NCI-H226 = tested on: NCI-H226
786-0 = tested on: 786-0

SMILES	GI50 (LOX IMVI)	GI50 (UACC-62)	GI50 (NCI-H460)	GI50 (SF-295)	GI50 (NCI-H23)	GI50 (HOP-62)	GI50 (SK-MEL-5)	GI50 (SR)	GI50 (CCRF-CEM)	GI50 (UO-31)	GI50 (HT-29)	GI50 (TK-10)	GI50 (HL-60)	GI50 (SNB-75)	GI50 (NCI-H226)	GI50 (786-0)
CN(C)[C@@H]1C(O)=C(C(=O)NCN2CCN(C(=N)NC(=N)N)CC2)C(=O)[C@@]2(O)C(O)=C3C(=O)c4c(O)cccc4[C@@](C)(O)[C@H]3C[C@@H]12	0.156 µM (active)	0.172 µM (active)	0.324 µM (active)	0.506 µM (active)	0.136 µM (active)	1.14 µM (inactive)	0.183 µM (active)	0.0406 µM (active)	0.11 µM (active)	0.301 µM (active)	0.123 µM (active)	0.468 µM (active)	0.0236 µM (active)	0.138 µM (active)	–	–
N#CC1=C(c2ccccc2)NNC(c2ccc(Cl)cc2)CC1=O (stereo unspecified)	32.8 µM (inactive)	–	36.1 µM (inactive)	24.6 µM (inactive)	73.6 µM (inactive)	23.3 µM (inactive)	20.9 µM (inactive)	39.2 µM (inactive)	–	–	30.8 µM (inactive)	> 100 µM (inactive)	17.6 µM (inactive)	14.8 µM (inactive)	0.165 µM (active)	–
C/C(=N\O)C(CN(C)C)C(c1ccccc1)c1c(O)c2ccccc2oc1=O (stereo unspecified)	> 100 µM (inactive)	> 100 µM (inactive)	–	> 100 µM (inactive)	> 100 µM (inactive)	> 100 µM (inactive)	> 100 µM (inactive)	> 100 µM (inactive)	> 100 µM (inactive)	> 100 µM (inactive)	> 100 µM (inactive)	> 100 µM (inactive)	> 100 µM (inactive)	> 100 µM (inactive)	> 100 µM (inactive)	> 100 µM (inactive)
CCOC(=O)[C@H]1Nc2ccc(C)cc2C2c3ccccc3CC21 (stereo partly specified)	> 100 µM (inactive)	> 100 µM (inactive)	> 100 µM (inactive)	74.1 µM (inactive)	> 100 µM (inactive)	> 100 µM (inactive)	> 100 µM (inactive)	> 100 µM (inactive)	–	> 100 µM (inactive)	> 100 µM (inactive)	> 100 µM (inactive)	–	46.1 µM (inactive)	> 100 µM (inactive)	> 100 µM (inactive)
Nc1cc[nH]c(=O)n1	> 100 µM (inactive)	> 100 µM (inactive)	> 100 µM (inactive)	> 100 µM (inactive)	–	> 100 µM (inactive)	> 100 µM (inactive)	–	> 100 µM (inactive)	> 100 µM (inactive)	> 100 µM (inactive)	> 100 µM (inactive)	> 100 µM (inactive)	> 100 µM (inactive)	> 100 µM (inactive)	> 100 µM (inactive)
CC(=O)OC1CC[C@@]2(C)C(CC(OC3OC(CO)C(O)C(O)C3O)[C@]3(C)C2CCC24CC23CC[C@H]4C(C)CC(O)[C@@H](O)C(C)(C)O)C1(C)C (stereo partly specified)	8.61 µM (inactive)	9.2 µM (inactive)	18.8 µM (inactive)	22.4 µM (inactive)	> 50 µM (inactive)	18.6 µM (inactive)	8.93 µM (inactive)	–	11.4 µM (inactive)	> 50 µM (inactive)	16.9 µM (inactive)	22.9 µM (inactive)	11.6 µM (inactive)	11.4 µM (inactive)	17 µM (inactive)	13.1 µM (inactive)
COc1cccc(OC)c1C(=O)OCc1ccccc1	–	> 100 µM (inactive)	> 100 µM (inactive)	> 100 µM (inactive)	> 100 µM (inactive)	> 100 µM (inactive)	> 100 µM (inactive)	> 100 µM (inactive)	> 100 µM (inactive)	–	> 100 µM (inactive)	> 100 µM (inactive)	> 100 µM (inactive)	> 100 µM (inactive)	> 100 µM (inactive)	> 100 µM (inactive)
c1ccc2c(c1)[nH]c1c2ncc2[nH]c3ccccc3c21	1.94 µM (inactive)	1.76 µM (inactive)	2.13 µM (inactive)	3.58 µM (inactive)	10.4 µM (inactive)	4.31 µM (inactive)	5.48 µM (inactive)	–	3.03 µM (inactive)	4.05 µM (inactive)	2.88 µM (inactive)	7.33 µM (inactive)	2 µM (inactive)	3.52 µM (inactive)	14 µM (inactive)	2.32 µM (inactive)
Cc1c2cc[n+](C)cc2c(C)c2c1[nH]c1ccccc12	10.9 µM (inactive)	4.5 µM (inactive)	2.06 µM (inactive)	0.233 µM (active)	0.714 µM (active)	0.441 µM (active)	1.35 µM (inactive)	–	2.33 µM (inactive)	15.8 µM (inactive)	5.83 µM (inactive)	–	9.62 µM (inactive)	0.193 µM (active)	0.34 µM (active)	–
